Results from patent publication US12459938B2, “ORAI channel inhibitors” (Beth Israel Deaconess Medical Center, Inc., priority 2019, dated 2025).

Tested on: NFAT
Assay: NFAT activation assay (luciferase reporter, PMA and ionomycin)
Assay type: cell-based
Settings: Homo sapiens; 10 μM compound; Jurkat cells; 15 nM PMA and 0.5 μM ionomycin; 18 hours; read-out: Activity 10 μM (% inhibition of NFAT luciferase luminescence)
Experimental: Jurkat cells (BPS Bioscience catalog No. 60621) were seeded at 40,000 cells per well into white clear-bottom 96-well microplate in 80 μl of growth medium without Geneticin. 10 μl of testing compounds (final 10 μM) were added to each well and preincubated with cells for half an hour. Then 10 μl of PMA and ionomycin mixture were added to each well to make the final concentration of 15 nM PMA and 0.5 μM ionomycin. Cells were incubated at 37° C. and 5% CO2 incubator for 18 hours. After treatment, cells were lysed and the luciferase assay was performed using ONE-Step luciferase assay system by adding 100 μl of One-Step Luciferase reagent (BPS Bioscience catalog No. 60690) per well followed by rocking at room temperature for about 30 minutes. Luminescence was measured using a luminometer (BioTek Synergym™ 2 microplate reader). The percent luminescence in the presence of each compound was calculated according to the following equation: % Luminescence=(L−Lb)/(Lt−Lb), where L=the luminescence intensity in the presence of the compound, Lb=the luminescence intensity in the absence of cells, and Lt=the luminescence intensity in the absence of the compound. The percent inhibition was calculated by: % inhibition=100−(% Luminescence).

Row | Compound | inhibition at 10 µM [%]
1 | O=C(Nc1ccncc1F)c1cn(CC2CC2)c2ncccc12 [Example 5, 1-(cycloproylmethyl)-N-(3-fluoropyridin-4-yl)-1H-pyrrolo[2,3-b]pyridine-3-carboxamide] | 26 to 50
2 | Cc1cnccc1NC(=O)c1nn(CC2CC2)c2ccccc12 [Example 6, 1-(cyclopropylmethyl)-N-(3-methylpyridin-4-yl)-1H-indazole-3-carboxamide] | > 75
3 | O=C(Nc1ccncc1F)c1nn(CC2CCC2)c2ccccc12 [Example 10, 1-(cyclobutylmethyl)-N-(3-fluoropyridin-4-yl)-1H-indazole-3-carboxamide] | > 75
4 | Cc1cnccc1NC(=O)c1nn(CC2CCC2)c2ccccc12 [Example 11, 1-(cyclobutylmethyl)-N-(3-methylpyridin-4-yl)-1H-indazole-3-carboxamide] | > 75
5 | O=C(Nc1ccncc1F)c1cn(CC2COC2)c2ccccc12 [Example 12, N-(3-fluoropyridin-4-yl)-1-(oxetan-3-ylmethyl)-1H-indole-3-carboxamide] | < 25
6 | CN(C(=O)c1cn(CC2CC2)c2ccccc12)c1ccncc1F [Example 14, 1-(cyclopropylmethyl)-N-(3-fluoropyridin-4-yl)-N-methyl-1H-indole-3-carboxamide] | < 25
7 | Fc1cnccc1NCc1cn(CC2CC2)c2ccccc12 [Example 15, N-((1-(cyclopropylmethyl)-1H-indol-3-yl)methyl)-3-fluoropyridin-4-amine] | 26 to 50
8 | O=C(Nc1ccncc1F)c1cn(CC2CC2)c2cnccc12 [Example 16, 1-(cycloproylmethyl)-N-(3-fluoropyridin-4-yl)-1H-pyrrolo[2,3-c]pyridine-3-carboxamide] | < 25
9 | O=C(Nc1ccncc1F)c1cn(CC2CC2)c2ccncc12 [Example 17, 1-(cyclopropylmethyl)-N-(3-fluoropyridin-4-yl)-1H-pyrrolo[3,2-c]pyridine-3-carboxamide] | < 25
10 | O=C(Nc1ccncc1F)c1cn(CC2CC2)c2cccnc12 [Example 18, 1-(cycloproylmethyl)-N-(3-fluoropyridin-4-yl)-1H-pyrrolo[3,2-b]pyridine-3-carboxamide] | 26 to 50
11 | Cc1cnccc1NC(=O)c1ccn(CC2CC2)n1 [Example 19, 1-(cyclopropylmethyl)-N-(3-methylpyridin-4-yl)-1H-pyrazole-3-carboxamide] | 51 to 75
12 | O=C(Nc1ccncc1F)c1ccn(CC2CC2)n1 [Example 20, 1-(cyclopropylmethyl)-N-(3-fluoropyridin-4-yl)-1H-pyrazole-3-carboxamide] | 51 to 75
13 | O=C(Nc1c(F)cccc1F)c1ccn(CC2CC2)n1 [Example 21, 1-(cyclopropylmethyl)-N-(2,6-difluorophenyl)-1H-pyrazole-3-carboxamide] | < 25
14 | O=C(Nc1c(F)cncc1F)c1ccn(CC2CC2)n1 [Example 22, 1-(cyclopropylmethyl)-N-(3,5-difluoropyridin-4-yl)-1H-pyrazole-3-carboxamide] | < 25
15 | O=C(Nc1ccncc1F)c1nn(CC2CC2)c2ccccc12 [Example 23, 1-(cyclopropylmethyl)-N-(3-fluoropyridin-4-yl)-1H-indazole-3-carboxamide] | > 75
16 | O=C(Nc1ccncc1F)c1nn(CC2CC2)c2c1CCCC2 [Example 25, 1-(cyclopropylmethyl)-N-(3-fluoropyridin-4-yl)-4,5,6,7-tetrahydro-1H-indazole-3-carboxamide] | > 75

Row | Compound | inhibition at 10 µM [%]
17 | O=C(Nc1c(F)cccc1F)c1nn(CC2CC2)c2c1CCCC2 [Example 26, 1-(cyclopropylmethyl)-N-(2,6-difluorophenyl)-4,5,6,7-tetrahydro-1H-indazole-3-carboxamide] | 51 to 75
18 | O=C(Nc1ccn(CC2CC2)n1)c1c(F)cncc1F [Example 27, N-(1-(cyclopropylmethyl)-1H-pyrazol-3-yl)-3,5-difluoroisonicotinamide] | 26 to 50
19 | O=C(Nc1ccn(CC2CC2)n1)c1ccncc1F [Example 28, N-(1-(cyclopropylmethyl)-1H-pyrazol-3-yl)-3-fluoroisonicotinamide] | < 25
20 | Cc1cnccc1C(=O)Nc1ccn(CC2CC2)n1 [Example 30, N-[1-(cyclopropylmethyl)-1H-pyrazol-3-yl]-3-methylpyridine-4-carboxamide] | < 25
21 | O=C(Nc1ccncc1F)c1nn(CC2CC2)c2ncccc12 [Example 31, 1-(cyclopropylmethyl)-N-(3-fluoropyridin-4-yl)-1H-pyrazolo[3,4-b]pyridine-3-carboxamide] | 51 to 75
22 | O=C(Nc1ccncc1F)c1nn(CC2CC2)c2c1CCC2 [Example 32, 1-(cycloproylmethyl)-N-(3-fluoropyridin-4-yl)-1,4,5,6-tetrahydrocyclopenta[c]pyrazole-3-carboxamide] | > 75
23 | O=C(Nc1ccncc1F)c1nn(CC2CCC2)c2c1CCCC2 [Example 33, 1-(cyclobutylmethyl)-N-(3-fluoropyridin-4-yl)-4,5,6,7-tetrahydro-1H-indazole-3-carboxamide] | > 75
24 | Cc1ccc2c(c1)c(C(=O)Nc1ccncc1F)nn2CC1CC1 [Example 34, 1-(cyclopropylmethyl)-N-(3-fluoropyridin-4-yl)-5-methyl-1H-indazole-3-carboxamide] | > 75
25 | O=C(Nc1ccncc1F)c1nn(CC2CC2)c2cc(Cl)ccc12 [Example 35, 6-chloro-1-(cyclopropylmethyl)-N-(3-fluoropyridin-4-yl)-1H-indazole-3-carboxamide] | 51 to 75
26 | O=C(Nc1ccncc1F)c1nn(CC2CC2)c2ccc(Br)cc12 [Example 36, 1-(cyclopropylmethyl)-5-bromo-N-(3-fluoropyridin-4-yl)-1H-indazole-3-carboxamide] | 51 to 75
27 | O=C(Nc1ccncc1F)c1nn(CC2CC2)c2ccc(F)cc12 [Example 37, 1-(cyclopropylmethyl)-5-fluoro-N-(3-fluoropyridin-4-yl)-1H-indazole-3-carboxamide] | > 75
28 | O=C(Nc1ccncc1F)c1nn(CC2CC2)c2cc(F)ccc12 [Example 38, 1-(cyclopropylmethyl)-6-fluoro-N-(3-fluoropyridin-4-yl)-1H-indazole-3-carboxamide] | > 75
29 | O=C(Nc1ccncc1F)c1nn(CC2CC2)c2c(F)cccc12 [Example 39, 1-(cyclopropylmethyl)-7-fluoro-N-(3-fluoropyridin-4-yl)-1H-indazole-3-carboxamide] | 51 to 75
30 | Cc1cnccc1NC(=O)c1nn(CC2CCC2)c2c1CCCC2 [Example 40, 1-(cyclobutylmethyl)-N-(3-methylpyridin-4-yl)-4,5,6,7-tetrahydro-1H-indazole-3-carboxamide] | > 75
31 | Cc1cnccc1NC(=O)c1nn(CC2CC2)c2c1CCC2 [Example 41, 1-(cycloproylmethyl)-N-(3-methylpyridin-4-yl)-1,4,5,6-tetrahydrocyclopenta[c]pyrazole-3-carboxamide] | 51 to 75
32 | Cc1cnccc1NC(=O)c1nn(CC2CC2)c2c1CCCC2 [Example 42, 1-(cyclopropylmethyl)-N-(3-methylpyridin-4-yl)-4,5,6,7-tetrahydro-1H-indazole-3-carboxamide] | > 75
